Assay results published in PMC12459020, “Chemical Probes that Target a Dissociative LuxR-Type Quorum Sensing Receptor in Gram-Negative Bacteria” (ACS Chemical Biology, 2025).
Like-named read-outs stand apart in the source and are kept apart here.

Assays:
EsaR [1] = target: T1, EsaR (Pantoea stewartii subsp. stewartii, UniProt P54293); experiment: cell-based; conditions: for activation at 100 µM / inhibition at 100 µM: 3.5 h; for activation at 100 µM: read-out: EsaR-repressed (pesaR) [%] agonism; for inhibition at 100 µM: read-out: EsaR-repressed (pesaR) antagonism
T1 construct: expressed in transfected cells; host or cells: E. coli JLD271 (K12 ΔsdiA), arabinose-induced pJN105-esaR
Procedure, shortened: (§1)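 E. coli carrying arabinose-induced esaR plus pesaS (activated) or pesaR (repressed) promoter fused to lux or GFP; P. stewartii ESN51 GFP reporters also used.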

EsaR [2] = target: T1, EsaR; experiment: cell-based; conditions: for activation at 100 µM / inhibition at 100 µM: 3.5 h; for activation at 100 µM: read-out: EsaR-activated (pesaS) [%] agonism; for inhibition at 100 µM: read-out: EsaR-activated (pesaS) antagonism; for EsaR agonism, in words: E. coli EsaR reporters, primary screen at 100 μM
Procedure, shortened: as §1

ExpR2 [3] = target: ExpR2 (Pectobacterium versatile, UniProt Q1A4U9); experiment: E. coli GFP reporter with ExpR2-activated promoter (prsmA); type: cell-based, Pectobacterium versatile Ecc71
Text: One difference between our prior study in ExpR1/2 and that reported here in EsaR is that the former relied on QS-controlled phenotypes in P. versatile Ecc71 (i.e., cellulase and pectate lyase activity) to measure compound activity, unlike the heterologous transcriptional reporters used for EsaR. To further investigate the differences in antagonism assay data observed between EsaR and ExpR1/2, an E. coli reporter was created with an ExpR2 protein production plasmid (pJN105-expR2) and a reporter plasmid with an ExpR2-activated promoter (prsmA) controlling GFP (see Methods section). […] We return to possible explanations for the differences observed between the ExpR2 phenotypic assays and transcriptional reporters below.
Supporting Information — Stoutland et al.
Additional experimental methods.
Plasmid and reporter strain construction for ExpR2 reporters
Gibson assembly was used to create all constructs. Strains, plasmids and primers are listed in Ta b l es S1 and S2. Plasmid pJN105-expR2 was created by amplifying expR2 from Pectobacterium versatile Ecc71 genomic DNA and inserting it into pJN105, amplified from pJN105-esaR. […] E. coli reporter strains were created by transforming pJN105-expR2 and prsmA:GFP into electrocompetent E. coli JLD271.
E. coli ExpR2 reporter assay
Single colonies of the reporter strain were used to inoculate LB medium supplemented with appropriate antibiotics, and these cultures were grown overnight at 37 °C with shaking at 200 rpm.
Overnight cultures were diluted 1:10 in LB medium with appropriate antibiotics and grown at 37 °C to an OD600 of 0.22–0.27 before induction with 0.4 mg/mL arabinose. Arabinose concentration was optimized to maximize dynamic range of reporter data. Compounds were dissolved in DMSO, and 2 µL of this stock, or DMSO as a negative control, was added to each well of a clear-bottom, black 96-well plate prior to adding 198 µL of induced culture. Plates were incubated at 37 °C with shaking at 200 rpm for 3.5 hr. Assays were performed in technical and biological triplicate. Each well was mixed by pipetting before reading fluorescence and OD600. EC50 values were calculated based on a nonlinear regression of log(concentration) vs. response - variable slope (four parameters) using GraphPad Prism 9 software.

LuxR = conditions: cited from earlier work; for LuxR antagonism: 5 µM compound against 5 µM OHHL, negative values indicate potential activators, ref 6 (SI; Palmer et al., 2011); for LuxR [%] (agonism, activation): compounds at 200 μM, luminescence in V. fischeri ES114 (ΔluxI), ref Palmer et al., 2011 (main ref 44, SI ref 6)
ExpR1 = conditions: cited from earlier work; for ExpR1 antagonism: 5 µM compound against 5 µM OHHL, negative values indicate potential activators, ref 6 (SI; Palmer et al., 2011); for ExpR1 [%] (agonism, activation): compounds at 200 μM, cellulase activity in P. versatile AC5117, ref Palmer et al., 2011 (main ref 44, SI ref 6)
ExpR2 [4] = conditions: cited from earlier work; for ExpR2 antagonism (percent inhibition): 5 µM compound against 5 µM OHHL, negative values indicate potential activators; for ExpR2 [%] (agonism, percent activation): compounds at 200 μM, cellulase activity in P. versatile AC5099, ref Palmer et al., 2011 (main ref 44, SI ref 6)
EsaR [5] = target: T1, EsaR; experiment: P. stewartii ESN51 (ΔesaI) GFP reporter with EsaR-activated promoter (pesaS); type: cell-based
Text: (§2) EsaR transcriptional activation and repression were examined using E. coli and P. stewartii reporters (strains and plasmids listed in Table S1; see Methods section for assay details). […] We constructed reporters in E. coli based on previously reported EsaR reporters (Table S1). Each strain contained an EsaR expression plasmid (pJN105-esaR) and a reporter plasmid with either an EsaR-activated promoter (pesaS) or an EsaR-repressed promoter (pesaR) upstream of luxABCDE or GFP.
(§3) Gibson assembly was used to create all constructs. Plasmid pJN105-esaR was created by amplifying esaR from pAC-esaR and inserting it into pJN105. pesaSlux was created by inserting pesaS, amplified from pPesaR-AC:gfp, into the pCS-pesaRlux backbone. The pesaR promoter was amplified from pCS-pesaRlux and inserted into the pPesaR-AC:gfp backbone to create pesaR:GFP. P. stewartii reporter strains were created by transforming pesaR:GFP or pPesaR-AC:gfp into ESN51 by conjugation using E. coli S17 λpir as the donor strain. See SI for details of E. coli ExpR2 reporter construction.
(§4) Compound stocks were prepared and plated as described for E. coli reporter assays. […] Cultures were diluted to an OD600 of 0.05, and 198 μL was added to each well of a clear-bottom, black 96-well plate and incubated for 6 h at 28 °C (200 rpm) before reading fluorescence and OD600.

EsaR [6] = target: T1, EsaR; experiment: P. stewartii ESN51 (ΔesaI) GFP reporter with EsaR-repressed promoter (pesaR); type: cell-based
Text: as §2, §3, §4

P. stewartii ESN51 = type: cell-based, Pantoea stewartii; conditions: OD600; 100 µM–1 mM tested
Text: We were curious whether the EsaR agonists identified in the E. coli reporters were also active in EsaR’s native host organism. In past studies, some E. coli LuxR-type receptor reporters have yielded EC50 values for exogenous ligands that differ by orders of magnitude relative to reporters constructed in native bacteria. Overexpression of LuxR-type receptors in E. coli has been proposed to lead to increased DNA binding and an overestimation of associative receptor sensitivity to agonists, as measured with lower EC50 values. However, because dissociative LuxR-type receptors bind to DNA in the absence of ligand, high receptor expression could instead lead to an underestimate of agonism. To account for any unintended effects of the E. coli genetic background and test compound activity at native levels of EsaR, we created genetic reporters in P. stewartii (see above and Methods section for details).
Supporting Information — Stoutland et al. […]
interesting that constitutive activituy (uninduced) from pesaR promoter is so much 2 4 6 […]
ESN51 pesaR-AC:GFP ESN51 pesaR:GFP
Figure S1. Luminescence inhibition, dynamic range, and growth of reporter strains. […]
(also on this page, place not known: 102 104 106 percent activation (GFP/OD600 - JLD)/3OC6 Normalized luminescence ✱✱✱✱✱✱✱✱ controls GFP/OD600 pesaS OD600 GAF 0.3 0.4 OD600 1mM 300µM)

[7] = Solubility remark on supplementary figure page; type: physicochemical; conditions: stray annotation on SI page 6
[8] = test system: P. stewartii ΔesaI (ESN51); experiment: Mucoidy (exopolysaccharide) phenotypic assay on CPG agar; type: cell-based, Pantoea stewartii; conditions: 10 μM in CPG agar, ESN51, 2 days at 28 °C
Text: In P. stewartii, EsaR regulates the production of the exopolysaccharide stewartan, which clogs the xylem of infected plants and leads to the wilt and lesions characteristic of Stewart’s wilt. EsaR binds directly to the rcsA promoter to repress transcription at low cell density, and when this repression is relieved at high cell density, RcsA contributes to activation of the cps gene cluster, which encodes the stewartan biosynthetic pathway. Exopolysaccharide production can be visualized by the growth of mucoid colonies on casamino acid-peptone-glucose (CPG) agar plates, and this phenotypic assay is commonly used to evaluate EsaR-mediated QS in P. stewartii. , To investigate the ability of the synthetic EsaR agonists uncovered here to regulate a QS-controlled phenotype in P. stewartii, selected compounds were tested for their ability to induce mucoidy in the P. stewartii (ΔesaI) strain, ESN51 (Figure ).
P. stewartii ΔesaI (ESN51) was grown on Casamino Peptone Glucose (CPG) agar (1 g/L casamino acids, 10 g/L peptone, 10 g/L glucose, 17 g/L agar) supplemented with a 1:1000 dilution of compound stocks or DMSO. Plates were incubated at 28 °C for 2 days without shaking before imaging with a smartphone camera (Apple iPhone X). Images are representative of at least two biological replicates.

[9] = ref 6 (SI; Palmer et al., 2011)
[10] = previously reported phenotypic reporter data, ref 6 (SI; Palmer et al., 2011)

Chain of ExpR2 (Pectobacterium versatile, UniProt Q1A4U9) (Q1A4U9 entry or part of it): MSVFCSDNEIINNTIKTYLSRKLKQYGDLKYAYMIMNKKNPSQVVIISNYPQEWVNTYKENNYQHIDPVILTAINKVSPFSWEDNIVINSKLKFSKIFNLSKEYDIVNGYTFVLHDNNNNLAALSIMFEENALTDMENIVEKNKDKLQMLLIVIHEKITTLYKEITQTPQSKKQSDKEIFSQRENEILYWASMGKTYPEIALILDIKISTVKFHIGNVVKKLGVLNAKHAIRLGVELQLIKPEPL
T1 sequence (P54293 whole entry): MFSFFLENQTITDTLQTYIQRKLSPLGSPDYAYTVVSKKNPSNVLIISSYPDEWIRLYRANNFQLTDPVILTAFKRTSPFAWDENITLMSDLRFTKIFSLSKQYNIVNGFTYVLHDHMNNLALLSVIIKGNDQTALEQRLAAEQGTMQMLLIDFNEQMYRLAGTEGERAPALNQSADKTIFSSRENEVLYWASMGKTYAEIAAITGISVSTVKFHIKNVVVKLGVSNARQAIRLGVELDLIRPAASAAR

SMILES: O=C(CCc1ccc(Br)cc1)N[C@H]1CCOC1=O [B7, 4-Br phenylpropanoyl HL]
- activation at 100 µM (EsaR [1]): 66%
- inhibition at 100 µM (EsaR [1]): -36%
- activation at 100 µM (EsaR [2]): 56%
- inhibition at 100 µM (EsaR [2]): -50%
- EsaR agonism, in words (EsaR [2]): agonized EsaR
- ExpR2 agonism, in words (ExpR2 [3]; E. coli ExpR2 GFP reporter): behaved as an agonist
- LuxR antagonism (LuxR): 80%
- LuxR [%] (agonism, activation) (LuxR): 2%
- ExpR1 antagonism (ExpR1): 78%
- ExpR1 [%] (agonism, activation) (ExpR1): 3%
- ExpR2 antagonism (percent inhibition) (ExpR2 [4]; [9]): 66%
- ExpR2 [%] (agonism, percent activation) (ExpR2 [4]): 8%
- IC50 (ExpR2 [4]; [10]): 2.75 µM

SMILES: O=C(Cc1cccc([N+](=O)[O-])c1)N[C@H]1CCOC1=O [C14, 3-NO2 PHL]
- EC50 (EsaR [1]): ≥ 98 µM
- activation at 100 µM (EsaR [1]): 22%
- inhibition at 100 µM (EsaR [1]): -3%
- EC50 (EsaR [2]): ≥ 68 µM
- activation at 100 µM (EsaR [2]): 62%
- inhibition at 100 µM (EsaR [2]): -56%
- EsaR agonism, in words (EsaR [2]): moderate activator
- EC50 (ExpR2 [3]): 0.16 µM
- ExpR2 agonism, in words (ExpR2 [3]; E. coli ExpR2 GFP reporter): acted as agonists
- fold less potent than OHHL in ExpR2 E. coli reporter (ExpR2 [3]; E. coli ExpR2 GFP reporter): approximately 40 fold
- LuxR antagonism (LuxR): -18%
- LuxR [%] (agonism, activation) (LuxR): 130%
- ExpR1 antagonism (ExpR1): -15%
- ExpR1 [%] (agonism, activation) (ExpR1): 115%
- ExpR2 antagonism (percent inhibition) (ExpR2 [4]; [9]): -4%
- ExpR2 [%] (agonism, percent activation) (ExpR2 [4]): 103%
- EC50 (ExpR2 [4]; [10]): 0.5 µM

SMILES: O=C1OCC[C@@H]1NS(=O)(=O)c1ccc(Br)cc1 [GAF 35]
- EC50 (EsaR [1]): 23 µM
- EC50 (EsaR [2]): 23 µM
- EC50 (EsaR [5]): 24 µM
- EC50 (EsaR [6]): 27 µM
- growth inhibition in P. stewartii ESN51 reporters (P. stewartii ESN51): Growth inhibition

SMILES: O=C(N[C@H]1CCOC1=O)c1ccc(Cl)c(Cl)c1 [GAF 58]
- EsaR agonism at 100 μM (bound stated in text) (EsaR [2]; 100 μM, E. coli EsaR reporter): less than 50%
- solubility remark [7]: slighly insoluble

SMILES: O=C1OCC[C@@H]1NS(=O)(=O)c1ccc(Cl)c(F)c1 [GAF 64, 3-F, 4-Cl BSHL]
- EC50 (EsaR [5]): 2.7 µM
- EC50 (EsaR [6]): 6.7 µM
- growth inhibition in P. stewartii ESN51 reporters (P. stewartii ESN51): Growth inhibition

SMILES: CCCC(=O)CC(=O)N[C@H]1CCOC1=O [OHHL, 3-oxo-hexanoyl HL, reference compound]
- activation at 100 µM (EsaR [1]): 100%
- inhibition at 100 µM (EsaR [1]): 0%
- activation at 100 µM (EsaR [2]): 100%
- inhibition at 100 µM (EsaR [2]): 0%
- induction of mucoidy [8]: smooth
- EC50 (ExpR2 [3]): 0.0039 µM
- ExpR2 agonism, in words (ExpR2 [3]; E. coli ExpR2 GFP reporter): acted as agonists
- LuxR antagonism (LuxR): 0%
- LuxR [%] (agonism, activation) (LuxR): 100%
- ExpR1 antagonism (ExpR1): 0%
- ExpR1 [%] (agonism, activation) (ExpR1): 100%
- ExpR2 antagonism (percent inhibition) (ExpR2 [4]; [9]): 0%
- ExpR2 [%] (agonism, percent activation) (ExpR2 [4]): 100%
- EC50 (ExpR2 [4]; [10]): 2 µM
